Measurements: patent US5696108A, “Protein kinase C inhibitors” (Eli Lilly and Company, priority 1996, dated 1997)
Where a name gives a salt, the structure may show the parent alone.

How the values were obtained:
Conditions in all cases: Table 1
[1] = biological target: T1, cAMP-dependent kinase catalytic subunit (Bos taurus, UniProt P00517); experiment: cAMP-Dependent protein Kinase Catalytic Subunit Assay; format: biochemical, bovine
T1 construct: purchased Sigma, St. Louis, Mo; host or cells: bovine heart
Experimental: cAMP-Dependent protein Kinase Catalytic Subunit Assay (PEA) The Assay components are in a total volume of 250 μL: 20 mM HEPES (Sigma, St. Louis, Mo.) buffer pH 7.5, 200 μg/mL histone type HL (Worthington), 10 mM magnesium chloride (Sigma, St. […] The reaction is initiated by addition of bovine heart cAMP-dependent kinase catalytic subunit (Sigma, St. Louis, Mo.), incubated to 30° C. for 10 minutes and stopped by adding 0.5 mL ice cold Trichloroacetic acid (Amresco) followed by 100 μL of 1 mg/mL bovine serum albumin (Sigma). The precipitate is collected by vacuum filtrated on glass fiber filters employing a TOMTEC™ and quantified by counting in a beta scintillation counter. This assay is done identical to the protein kinase C (PKC) enzyme assay except that no phospholipids or diacylglycerol are employed in the assay and the histone substrate is specific for the cAMP-dependent catalytic subunit enzyme.

casein protein kinase II = biological target: T2, casein protein kinase II (Rattus norvegicus, UniProt P19139); experiment: Casein Protein Kinase II Assay (CK-II); format: biochemical
T2 construct: isolated from rat brain homogenate; from tissue; host or cells: rat brain homogenate
T2 sequence (P19139 whole entry): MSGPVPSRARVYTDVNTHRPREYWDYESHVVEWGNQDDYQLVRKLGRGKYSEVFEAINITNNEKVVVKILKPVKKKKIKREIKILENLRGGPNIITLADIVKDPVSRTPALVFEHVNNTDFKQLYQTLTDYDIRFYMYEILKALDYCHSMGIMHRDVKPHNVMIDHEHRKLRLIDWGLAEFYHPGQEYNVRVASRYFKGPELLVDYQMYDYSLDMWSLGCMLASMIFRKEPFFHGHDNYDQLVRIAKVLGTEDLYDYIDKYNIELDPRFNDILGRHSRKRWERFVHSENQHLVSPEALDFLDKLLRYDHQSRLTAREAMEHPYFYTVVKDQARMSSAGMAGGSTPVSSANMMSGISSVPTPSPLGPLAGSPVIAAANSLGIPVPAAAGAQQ
T2 sequence (P67874 2-215 partner limits assumed): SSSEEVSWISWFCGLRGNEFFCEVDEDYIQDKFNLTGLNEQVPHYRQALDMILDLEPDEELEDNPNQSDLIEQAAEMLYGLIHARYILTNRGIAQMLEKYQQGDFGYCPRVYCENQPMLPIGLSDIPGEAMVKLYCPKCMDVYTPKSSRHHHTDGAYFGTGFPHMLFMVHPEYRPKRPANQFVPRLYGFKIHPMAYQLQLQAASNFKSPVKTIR
Experimental: Casein Protein Kinase II Assay (CK-II)
The Casein Protein Kinase II Assay is described in Neurochem. […] The assay components are in a total volume of 250 μL: 20 mM Tris-HCl, pH 7.5, 5 mM sodium fluoride, 50 mg/mL Casein (Sigma, St. Louis, Mo.), 10 mM magnesium chloride (Sigma, St. Louis, Mo.), 10 μL DMSO or DMSO/inhibitor and 30 μm (gamma-32P) ATP (DuPont). Initiation of the reaction is performed by addition of casein protein kinase II (isolated from rat brain homogenate), incubated at room temperature for 10 minutes and stopped by the addition of 0.5 mL ice cold Trichloroacetic acid (Amresco) followed by 100 μL of 1 mg/mL bovine serum albumin (Sigma, St. Louis, Mo.). The precipitate is collected by vacuum filtration on glass fiber filters and quantified by counting in a beta scintillation counter.
Assay components in order of addition
10 μL or DMSO or DMSO/inhibitor
25 μL of AT32P in 300 μM magnesium chloride
40 μL of enzyme (undiluted)
Buffer prepared as follows:
(Final volume=3.5 mL: amount of 20 assays)

PKC-α = PKC-α (Homo sapiens, UniProt P17252); experiment: PKC Enzyme Assay, alpha isozyme; format: biochemical
Experimental: (§1) PKC enzymes=alpha, beta I, beta II, gamma, delta, epsilon, eta and zeta.
(§2) Assay components in a total volume of 250 μL are as follows:
(§3) For all the enzymes either histone type HL (Worthington) or myelin basic protein is used as substrate. The assay is started by addition of protein kinase C enzyme incubated at 30° C. for 10 minutes and stopped by adding 0.5 mL of cold trichloroacetic acid (Amresco) followed by 100 μL of 1 mg/mL bovine serum albumin (Sigma, St. Louis, Mo.). The precipitate is collected by vacuum filtration on glass fiber filters employing a TOMTEC™ filtration system and quantified by counting in a beta scintillation counter.

src = biological target: T3, src (Homo sapiens, UniProt P12931); experiment: Protein Tyrosine Kinase Assay (src); format: biochemical
T3 construct: purchased Onogene Science, Inc. PK02 and PK03
T3 sequence (P12931 whole entry, species assumed): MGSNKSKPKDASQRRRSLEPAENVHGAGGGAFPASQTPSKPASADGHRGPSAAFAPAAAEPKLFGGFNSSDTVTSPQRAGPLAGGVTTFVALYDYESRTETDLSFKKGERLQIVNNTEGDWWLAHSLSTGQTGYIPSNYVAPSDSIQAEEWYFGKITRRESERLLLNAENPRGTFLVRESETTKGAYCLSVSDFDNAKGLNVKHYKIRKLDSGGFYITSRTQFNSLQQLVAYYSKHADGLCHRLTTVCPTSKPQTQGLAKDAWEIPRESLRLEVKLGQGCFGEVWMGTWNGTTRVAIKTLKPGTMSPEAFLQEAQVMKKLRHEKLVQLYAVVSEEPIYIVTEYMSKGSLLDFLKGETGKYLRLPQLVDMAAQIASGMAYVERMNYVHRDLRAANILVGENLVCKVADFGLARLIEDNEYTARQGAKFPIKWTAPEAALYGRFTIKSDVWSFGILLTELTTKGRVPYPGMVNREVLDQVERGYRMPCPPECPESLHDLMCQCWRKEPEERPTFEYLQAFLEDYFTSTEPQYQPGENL
Experimental: Protein Tyrosine Kinase Assay (src)
The Assay components are the following:
4 μL DMSO or DMSO/inhibitor

[2] = biological target: calcium calmodulin dependent protein kinase; experiment: Calcium Calmodulin Dependent Protein Kinase Assay (CAM); format: biochemical, rat
Experimental: Calcium Calmodulin Dependent Protein Kinase Assay (CAM)
The reaction is initiated by the addition of calcium calmodulin dependent protein kinase (isolated from rat brain homogenate), incubated at room temperature for 10 minutes and stopped by adding 0.5 mL ice cold trichloroacetic acid (Amresco) followed by 100 μL of 1 mg/mL bovine serum albumin (Sigma, St. Louis, Mo.). The precipitate is collected by vacuum filtration on glass fiber filters and quantified by counting in a beta scintillation counter.
25 μL calmodulin (250 μg/mL)
10 μL DMSO or DMSO/inhibitor

PKC-β2 = PKC-β2 (Homo sapiens, UniProt P05771); experiment: PKC Enzyme Assay, beta-2 isozyme; format: biochemical
Chain of PKC-β2 (P05771 1-673 isoform P05771-2): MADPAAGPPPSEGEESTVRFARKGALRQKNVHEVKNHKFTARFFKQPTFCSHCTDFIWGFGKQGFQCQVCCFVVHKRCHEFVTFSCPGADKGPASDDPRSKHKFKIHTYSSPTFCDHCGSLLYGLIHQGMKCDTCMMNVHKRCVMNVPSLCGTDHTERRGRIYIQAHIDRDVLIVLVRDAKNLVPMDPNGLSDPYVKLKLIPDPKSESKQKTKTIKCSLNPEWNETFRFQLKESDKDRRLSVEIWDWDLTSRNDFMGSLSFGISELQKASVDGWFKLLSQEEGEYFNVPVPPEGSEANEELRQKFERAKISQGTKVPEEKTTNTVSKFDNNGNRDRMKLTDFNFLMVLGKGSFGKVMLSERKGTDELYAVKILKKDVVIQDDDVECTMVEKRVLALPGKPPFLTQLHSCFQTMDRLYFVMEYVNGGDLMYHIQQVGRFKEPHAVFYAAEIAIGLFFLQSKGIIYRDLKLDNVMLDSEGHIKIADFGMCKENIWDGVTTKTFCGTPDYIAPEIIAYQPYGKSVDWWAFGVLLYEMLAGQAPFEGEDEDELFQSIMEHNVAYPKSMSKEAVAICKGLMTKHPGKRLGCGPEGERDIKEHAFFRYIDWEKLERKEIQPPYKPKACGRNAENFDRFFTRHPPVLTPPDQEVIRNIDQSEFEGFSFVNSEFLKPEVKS
Experimental: as §1, §2, §3

PKC-β1 = PKC-β1 (Homo sapiens, UniProt P05771); experiment: PKC Enzyme Assay, beta-1 isozyme; format: biochemical
Chain of PKC-β1 (P05771 whole entry): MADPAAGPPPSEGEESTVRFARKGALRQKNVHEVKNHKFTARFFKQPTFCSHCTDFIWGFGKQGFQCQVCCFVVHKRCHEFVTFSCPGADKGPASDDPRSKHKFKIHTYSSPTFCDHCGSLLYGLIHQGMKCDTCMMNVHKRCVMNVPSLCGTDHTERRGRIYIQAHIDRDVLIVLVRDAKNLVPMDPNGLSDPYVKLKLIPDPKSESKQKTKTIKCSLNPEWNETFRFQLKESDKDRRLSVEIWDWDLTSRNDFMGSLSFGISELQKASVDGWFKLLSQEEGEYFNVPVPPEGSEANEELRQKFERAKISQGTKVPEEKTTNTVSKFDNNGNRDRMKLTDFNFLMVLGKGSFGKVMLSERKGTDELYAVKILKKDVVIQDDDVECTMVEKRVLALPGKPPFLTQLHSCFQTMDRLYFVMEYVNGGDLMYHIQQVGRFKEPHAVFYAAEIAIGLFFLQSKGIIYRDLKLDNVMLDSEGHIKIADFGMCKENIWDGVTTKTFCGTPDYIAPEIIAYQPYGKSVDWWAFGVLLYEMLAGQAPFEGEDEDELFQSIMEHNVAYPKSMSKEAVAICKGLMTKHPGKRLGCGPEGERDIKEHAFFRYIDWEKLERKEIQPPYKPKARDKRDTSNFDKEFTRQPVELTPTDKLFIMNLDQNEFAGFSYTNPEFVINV
Experimental: as §1, §2, §3

Row | SMILES | IC50 [1] | IC50 (casein protein kinase II) | IC50 (PKC-α) | IC50 (src) | IC50 [2] | IC50 (PKC-β2) | IC50 (PKC-β1)
1 | O=C1NC(=O)C2=C1c1cn(c3ccccc13)CCCC(COCc1ccccc1)CCn1cc2c2ccccc21 (racemic) [Example 30, (±)-3,4-[(N,N'-1,1'-(3"-(benzyloxymethylene)hexane)-bis-(3,3'-indolyl)]-1H-pyrrole-2,5-dione] | > 100 µM | > 10 µM | > 100 µM | > 100 µM | > 10 µM | 2 µM | 1 µM
2 | O=C1NC(=O)C2=C1c1cn(c3ccccc13)CCCC(NCc1ccccc1)CCCn1cc2c2ccccc21 [Example 47] | > 100 µM | > 100 µM | 2 µM | > 125 µM | 70 µM | 0.06 µM | 0.07 µM
3 | O=C(NCC1CCCn2cc(c3ccccc32)C2=C(C(=O)NC2=O)c2cn(c3ccccc23)CC1)OCc1ccccc1 (centres unmarked) [Example 39] | > 100 µM | > 100 µM | 31 µM | > 100 µM | > 100 µM | 0.3 µM | 0.4 µM
4 | O=C1NC(=O)C2=C1c1cn(c3ccccc13)CCCOC(CO)CCn1cc2c2ccccc21 (centres unmarked) [Example 2, 3,4-[(N,N'-1,1')-((3"-propoxy)-3'"(O)-4'"(hydroxy)butane)-bis-(3,3'-indolyl)]-1(H)-pyrrole-2,5-dione] | > 100 µM | > 100 µM | 4 µM | > 100 µM | > 100 µM | 0.2 µM | 0.4 µM
5 | O=C1NC(=O)C2=C1c1cn(c3ccccc13)CCCC1(CCCn3cc2c2ccccc23)OCCO1 [Example 48] | > 100 µM | > 100 µM | > 100 µM | > 100 µM | > 100 µM | 0.3 µM | 0.5 µM
6 | NCC1CCCn2cc(c3ccccc32)C2=C(C(=O)NC2=O)c2cn(c3ccccc23)CC1 (centres unmarked) [Example 32, 3,4-[(N,N'-1,1'-(3"-aminomethylene)-hexane)-bis-(3,3'-indolyl)]-1H-pyrrole-2,5-dione] | > 100 µM | > 100 µM | 0.1 µM | 72 µM | 0.9 µM | 0.008 µM | 0.01 µM
7 | O=C1NC(=O)C2=C1c1cn(c3ccccc13)CCCC(CN(Cc1ccccc1)Cc1ccccc1)CCn1cc2c2ccccc21 (centres unmarked) [Example 35, 3,4-[(N,N'-1,1 '-(3"-(N,N-dibenzylamino)methylene)-hexane)-bis-(3,3'-indolyl)]-1H-pyrrole-2,5-dione trifluoroacetate salt] |  | > 100 µM | 9 µM | > 100 µM | 82 µM | 2 µM | 3 µM
8 | O=C1NC(=O)C2=C1c1cn(c3ccccc13)CCCCCn1cc2c2ccccc21 [Example 43] |  | > 100 µM | 0.4 µM | > 100 µM | 0.6 µM | 0.03 µM | 0.04 µM
9 | CC(=O)NC1CCCn2cc(c3ccccc32)C2=C(C(=O)NC2=O)c2cn(c3ccccc23)CCC1 [Example 46] | > 100 µM | > 100 µM | 3 µM | > 100 µM | 63 µM | 0.04 µM | 0.04 µM
10 | NCC1CCn2cc(c3ccccc32)C2=C(C(=O)NC2=O)c2cn(c3ccccc23)CCO1 (centres unmarked) [Example 4, 3,4-[(N,N'-1,1'-((2'"-ethoxy)-3'"(O)-4'"-(amino)-butane)-bis-(3,3'-indolyl)]-1(H)-pyrrole-2,5-dione trifluoroacetate salt] |  | > 100 µM | 0.3 µM | 37 µM | 3 µM | 0.008 µM | 0.02 µM
11 | O=C1NC(=O)C2=C1c1cn(c3ccccc13)CCCC(CNCc1ccccc1)CCn1cc2c2ccccc21 (centres unmarked) [Example 34, 3,4-[(N,N'-1,1'-(3"-(N-benzylamino)methylene)-hexane)-bis-(3,3'-indolyl)]-1H-pyrrole-2,5-dione trifluoroacetate salt] |  | > 100 µM | 1 µM | > 100 µM | 4 µM | 0.1 µM | 0.1 µM
12 | COCC1CCCn2cc(c3ccccc32)C2=C(C(=O)NC2=O)c2cn(c3ccccc23)CC1 (centres unmarked) [Example 37, 3,4-[(N,N'-1,1'-(3"-methoxymethylene)-hexane)-bis-(3,3'-indolyl)]-1H-pyrrole-2,5-dione] | > 100 µM | > 100 µM | 0.7 µM | > 100 µM | 5 µM | 0.04 µM | 0.05 µM
13 | NC1CCCn2cc(c3ccccc32)C2=C(C(=O)NC2=O)c2cn(c3ccccc23)CCC1 [Example 45] | > 100 µM | > 100 µM | 3 µM | > 125 µM | 39 µM | 0.1 µM | 0.1 µM
14 | CN(C)CC1CCCn2cc(c3ccccc32)C2=C(C(=O)NC2=O)c2cn(c3ccccc23)CC1 (centres unmarked) [Example 40] | > 100 µM | > 100 µM | 0.6 µM | 4.4 µM | 5 µM |  | 
15 | CC(=O)OCC1CCCn2cc(c3ccccc32)C2=C(C(=O)NC2=O)c2cn(c3ccccc23)CC1 (centres unmarked) [Example 38, 3,4-[(N,N'-1,1'-(3"-(acetoxy)methylene)-hexane)-bis-(3,3'-indolyl)]-1H-pyrrole-2,5-dione] | > 100 µM | > 100 µM | 4 µM | > 100 µM | 9 µM | 0.1 µM | 0.2 µM

Next, values leading:

Row | IC50 [1] | IC50 (casein protein kinase II) | IC50 (PKC-α) | IC50 (src) | IC50 [2] | IC50 (PKC-β2) | IC50 (PKC-β1) | SMILES
16 | > 100 µM | > 100 µM | 3 µM | 16 µM | 6.7 µM |  |  | O=C1NC(=O)C2=C1c1cn(c3ccccc13)CCO[C@H](CN1CCCC1)CCn1cc2c2ccccc21 [Example 20s]
17 | > 100 µM | > 100 µM | 68 µM | > 100 µM |  | 0.05 µM | 0.18 µM | O=C1NC(=O)C2=C1c1cn(c3ccccc13)CCO[C@@H](CNS(=O)(=O)c1ccccc1)CCn1cc2c2ccccc21 [Example 21r]
18 | > 100 µM | > 100 µM | 0.3 µM | 33 µM | 0.69 µM | 0.021 µM | 0.005 µM | NC[C@H]1CCn2cc(c3ccccc32)C2=C(C(=O)NC2=O)c2cn(c3ccccc23)CCO1 [Example 4r]
19 | > 100 µM | > 100 µM | 1.3 µM | 63 µM | 2.5 µM | 0.033 µM | 0.048 µM | NC[C@@H]1CCn2cc(c3ccccc32)C2=C(C(=O)NC2=O)c2cn(c3ccccc23)CCO1 [Example 4s]
20 | > 100 µM | > 100 µM | 0.89 µM | 74 µM | 7.3 µM |  |  | O=C1NC(=O)C2=C1c1cn(c3ccccc13)CCO[C@@H](CN1CCCC1)CCn1cc2c2ccccc21 [Example 20r]
21 | > 100 µM | > 100 µM | 0.3 µM | 71 µM | 8 µM |  |  | CN(C)C[C@@H]1CCCn2cc(c3ccccc32)C2=C(C(=O)NC2=O)c2cn(c3ccccc23)CC1 [Example 40r, (R)-3,4-[(N,N'-1,1'-(3"-(N,N-dimethylamino)methylene)-hexane)-bis-(3,3'-indolyl)]-1H-pyrrole-2,5-dione hydrochloride salt]
